In ChEMBL document CHEMBL4138202, “Design, synthesis, biological evaluation and molecular modeling of novel 2-amino-4-(1-phenylethoxy) pyridine derivatives as potential ROS1 inhibitors” (Eur J Med Chem, 2018):
pIC50: −log10 of the molar value.

Tests used:
[1] = target: ALK tyrosine kinase receptor (Homo sapiens, UniProt Q9UM73); assay: Inhibition of recombinant human GST-tagged ALK expressed in baculovirus expression system by Z'LYTE assay
[2] = target: Proto-oncogene tyrosine-protein kinase ROS (Homo sapiens, UniProt P08922); assay: Inhibition of recombinant human GST-tagged ROS1 expressed in baculovirus expression system by Z'LYTE assay
[3] = target: Tyrosine-protein kinase ABL1 (Homo sapiens) (UniProt P00519); assay: Inhibition of recombinant human His-tagged ABL1 expressed in baculovirus expression system at 1 uM by Z'LYTE assay relative to control
[4] = target: Serine/threonine-protein kinase B-raf (Homo sapiens) (UniProt P15056); assay: Inhibition of recombinant human full length GST-tagged BRAF expressed in baculovirus expression system at 1 uM by Z'LYTE assay relative to control
[5] = target: CDK2/Cyclin A2 (Homo sapiens) (UniProt P24941+P20248); assay: Inhibition of recombinant human full length His-tagged CDK2/cyclin A expressed in baculovirus expression system at 1 uM by Z'LYTE assay relative to control
[6] = target: Epidermal growth factor receptor (Homo sapiens) (UniProt P00533); assay: Inhibition of recombinant human GST-tagged EGFR expressed in baculovirus expression system at 1 uM by Z'LYTE assay relative to control
[7] = target: Fibroblast growth factor receptor 1 (Homo sapiens) (UniProt P11362); assay: Inhibition of recombinant human His-tagged FGFR1 expressed in baculovirus expression system at 1 uM by Z'LYTE assay relative to control
[8] = target: Insulin-like growth factor 1 receptor (Homo sapiens) (UniProt P08069); assay: Inhibition of recombinant human His-tagged IGF1R expressed in baculovirus expression system at 1 uM by Z'LYTE assay relative to control
[9] = target: Tyrosine-protein kinase JAK2 (Homo sapiens) (UniProt O60674); assay: Inhibition of recombinant human GST-tagged JAK2 expressed in baculovirus expression system at 1 uM by Z'LYTE assay relative to control
[10] = target: Mast/stem cell growth factor receptor Kit (Homo sapiens) (UniProt P10721); assay: Inhibition of KIT (unknown origin) at 1 uM by Z'LYTE assay relative to control
[11] = target: Leukocyte tyrosine kinase receptor (Homo sapiens) (UniProt P29376); assay: Inhibition of recombinant human GST-tagged LTK expressed in baculovirus expression system at 1 uM by Z'LYTE assay relative to control
[12] = target: Mitogen-activated protein kinase 3 (Homo sapiens) (UniProt P27361); assay: Inhibition of recombinant human GST-tagged full length MAPK3 expressed in Escherichia coli at 1 uM by Z'LYTE assay relative to control
[13] = target: Hepatocyte growth factor receptor (Homo sapiens) (UniProt P08581); assay: Inhibition of recombinant human His-tagged MET expressed in mammalian expression system at 1 uM by Z'LYTE assay relative to control
[14] = target: Platelet-derived growth factor receptor alpha (Homo sapiens) (UniProt P16234); assay: Inhibition of recombinant human GST-tagged PDGFRalpha expressed in baculovirus expression system at 1 uM by Z'LYTE assay relative to control
[15] = tested on: NCI-H3122; assay: Antiproliferative activity against human NCI-H3122 cells after 48 hrs by MTT assay; conditions: NCI-H3122, 48 h
[16] = tested on: HCC78; assay: Antiproliferative activity against human HCC78 cells after 48 hrs by MTT assay; conditions: HCC78, 48 h

Sequence of Proto-oncogene tyrosine-protein kinase ROS (P08922 whole entry): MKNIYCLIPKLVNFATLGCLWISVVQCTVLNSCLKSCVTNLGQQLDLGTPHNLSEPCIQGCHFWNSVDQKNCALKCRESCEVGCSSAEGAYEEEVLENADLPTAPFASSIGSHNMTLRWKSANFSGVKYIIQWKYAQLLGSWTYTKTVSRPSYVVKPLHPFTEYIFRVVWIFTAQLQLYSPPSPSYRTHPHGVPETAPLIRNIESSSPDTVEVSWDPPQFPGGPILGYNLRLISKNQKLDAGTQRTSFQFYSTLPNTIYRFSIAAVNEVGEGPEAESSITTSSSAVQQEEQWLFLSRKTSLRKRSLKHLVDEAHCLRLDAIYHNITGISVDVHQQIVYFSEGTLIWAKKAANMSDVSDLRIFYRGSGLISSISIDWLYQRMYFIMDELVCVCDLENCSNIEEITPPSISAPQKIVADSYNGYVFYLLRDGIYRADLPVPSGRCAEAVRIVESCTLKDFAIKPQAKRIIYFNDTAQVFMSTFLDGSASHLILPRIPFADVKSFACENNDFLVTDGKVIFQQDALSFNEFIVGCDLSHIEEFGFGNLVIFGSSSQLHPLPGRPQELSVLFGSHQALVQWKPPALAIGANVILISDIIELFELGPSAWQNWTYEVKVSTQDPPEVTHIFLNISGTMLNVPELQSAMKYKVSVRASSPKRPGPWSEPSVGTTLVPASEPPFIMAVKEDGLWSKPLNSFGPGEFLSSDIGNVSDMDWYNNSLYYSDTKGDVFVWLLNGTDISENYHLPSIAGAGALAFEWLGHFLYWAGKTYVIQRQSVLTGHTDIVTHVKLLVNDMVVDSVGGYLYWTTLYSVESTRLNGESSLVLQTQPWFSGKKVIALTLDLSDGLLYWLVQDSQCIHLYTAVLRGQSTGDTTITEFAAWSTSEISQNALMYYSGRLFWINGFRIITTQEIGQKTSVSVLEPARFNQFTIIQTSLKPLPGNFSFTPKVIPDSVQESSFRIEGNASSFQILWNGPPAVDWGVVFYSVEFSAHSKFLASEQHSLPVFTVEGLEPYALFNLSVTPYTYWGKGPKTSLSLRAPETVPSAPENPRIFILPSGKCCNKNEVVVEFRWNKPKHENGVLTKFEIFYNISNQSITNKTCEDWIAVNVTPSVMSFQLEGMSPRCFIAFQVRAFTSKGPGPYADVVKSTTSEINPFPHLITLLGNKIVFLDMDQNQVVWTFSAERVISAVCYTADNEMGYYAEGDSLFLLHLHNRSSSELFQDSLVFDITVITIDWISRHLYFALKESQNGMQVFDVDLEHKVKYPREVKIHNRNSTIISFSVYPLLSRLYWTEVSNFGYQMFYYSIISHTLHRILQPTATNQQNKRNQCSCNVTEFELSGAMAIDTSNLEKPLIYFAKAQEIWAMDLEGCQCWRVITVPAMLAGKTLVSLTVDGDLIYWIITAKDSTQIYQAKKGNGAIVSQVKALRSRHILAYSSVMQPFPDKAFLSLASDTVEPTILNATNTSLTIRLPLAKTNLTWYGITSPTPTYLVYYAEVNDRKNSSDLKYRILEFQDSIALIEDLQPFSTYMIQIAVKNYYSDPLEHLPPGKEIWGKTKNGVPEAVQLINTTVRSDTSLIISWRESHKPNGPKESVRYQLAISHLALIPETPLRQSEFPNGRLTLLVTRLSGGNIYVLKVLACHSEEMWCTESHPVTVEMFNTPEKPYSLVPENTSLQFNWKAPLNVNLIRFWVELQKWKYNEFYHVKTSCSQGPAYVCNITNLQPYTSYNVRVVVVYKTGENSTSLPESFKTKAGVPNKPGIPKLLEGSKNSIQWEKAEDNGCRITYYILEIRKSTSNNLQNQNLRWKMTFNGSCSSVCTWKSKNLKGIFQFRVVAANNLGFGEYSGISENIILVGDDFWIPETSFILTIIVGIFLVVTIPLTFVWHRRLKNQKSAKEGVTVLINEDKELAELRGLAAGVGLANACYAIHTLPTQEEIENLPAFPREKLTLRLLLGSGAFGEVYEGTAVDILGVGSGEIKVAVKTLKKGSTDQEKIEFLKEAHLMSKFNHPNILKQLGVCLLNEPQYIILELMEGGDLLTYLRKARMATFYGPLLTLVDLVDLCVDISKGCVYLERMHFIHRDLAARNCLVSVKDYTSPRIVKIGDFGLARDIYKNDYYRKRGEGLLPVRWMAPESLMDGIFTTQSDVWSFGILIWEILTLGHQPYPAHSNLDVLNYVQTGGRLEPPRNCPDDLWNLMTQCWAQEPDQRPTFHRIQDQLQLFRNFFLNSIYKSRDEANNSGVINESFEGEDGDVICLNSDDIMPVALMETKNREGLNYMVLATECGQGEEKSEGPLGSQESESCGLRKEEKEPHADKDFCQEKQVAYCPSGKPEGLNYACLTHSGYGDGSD
Sequence of ALK tyrosine kinase receptor (Q9UM73 whole entry): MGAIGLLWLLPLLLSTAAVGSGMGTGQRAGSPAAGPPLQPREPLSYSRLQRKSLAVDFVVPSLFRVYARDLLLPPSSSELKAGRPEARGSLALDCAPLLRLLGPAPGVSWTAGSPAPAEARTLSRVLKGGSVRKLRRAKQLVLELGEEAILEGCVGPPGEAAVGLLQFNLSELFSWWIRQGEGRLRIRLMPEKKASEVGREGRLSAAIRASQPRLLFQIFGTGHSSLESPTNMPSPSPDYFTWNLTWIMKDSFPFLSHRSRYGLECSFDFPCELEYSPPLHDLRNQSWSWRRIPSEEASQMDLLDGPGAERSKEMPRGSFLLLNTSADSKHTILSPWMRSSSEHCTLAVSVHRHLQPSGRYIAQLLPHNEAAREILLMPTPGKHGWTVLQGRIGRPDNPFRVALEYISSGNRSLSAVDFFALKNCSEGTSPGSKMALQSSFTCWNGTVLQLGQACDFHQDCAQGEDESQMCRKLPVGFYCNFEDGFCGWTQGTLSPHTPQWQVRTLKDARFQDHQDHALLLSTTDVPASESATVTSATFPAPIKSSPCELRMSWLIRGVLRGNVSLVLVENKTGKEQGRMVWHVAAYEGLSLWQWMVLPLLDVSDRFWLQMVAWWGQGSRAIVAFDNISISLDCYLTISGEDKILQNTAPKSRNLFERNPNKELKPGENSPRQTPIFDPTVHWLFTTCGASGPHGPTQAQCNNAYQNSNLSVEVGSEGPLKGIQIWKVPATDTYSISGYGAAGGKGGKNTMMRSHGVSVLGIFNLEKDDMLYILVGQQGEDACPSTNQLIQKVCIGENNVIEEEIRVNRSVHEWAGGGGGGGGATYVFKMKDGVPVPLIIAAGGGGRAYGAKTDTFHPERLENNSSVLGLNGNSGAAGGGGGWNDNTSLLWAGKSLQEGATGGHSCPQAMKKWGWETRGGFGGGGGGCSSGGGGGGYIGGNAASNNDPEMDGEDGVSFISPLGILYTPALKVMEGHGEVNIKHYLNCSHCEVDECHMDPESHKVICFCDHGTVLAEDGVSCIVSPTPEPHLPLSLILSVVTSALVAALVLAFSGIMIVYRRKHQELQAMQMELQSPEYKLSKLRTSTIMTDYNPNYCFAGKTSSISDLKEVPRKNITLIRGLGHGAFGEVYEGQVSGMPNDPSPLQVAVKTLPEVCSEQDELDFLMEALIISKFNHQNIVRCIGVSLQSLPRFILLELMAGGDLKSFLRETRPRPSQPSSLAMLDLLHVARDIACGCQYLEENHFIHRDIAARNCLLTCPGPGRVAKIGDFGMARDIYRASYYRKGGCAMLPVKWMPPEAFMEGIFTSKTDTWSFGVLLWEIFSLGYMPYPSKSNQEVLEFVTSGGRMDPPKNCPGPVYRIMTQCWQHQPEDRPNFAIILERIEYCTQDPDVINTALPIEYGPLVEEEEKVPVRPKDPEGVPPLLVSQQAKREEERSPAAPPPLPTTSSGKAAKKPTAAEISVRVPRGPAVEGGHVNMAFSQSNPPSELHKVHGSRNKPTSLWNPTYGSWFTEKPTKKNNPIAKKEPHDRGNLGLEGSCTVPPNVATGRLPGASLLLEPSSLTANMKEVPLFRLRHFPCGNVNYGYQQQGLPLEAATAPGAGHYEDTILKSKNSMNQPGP
Sequence of Leukocyte tyrosine kinase receptor (Homo sapiens) (P29376 whole entry): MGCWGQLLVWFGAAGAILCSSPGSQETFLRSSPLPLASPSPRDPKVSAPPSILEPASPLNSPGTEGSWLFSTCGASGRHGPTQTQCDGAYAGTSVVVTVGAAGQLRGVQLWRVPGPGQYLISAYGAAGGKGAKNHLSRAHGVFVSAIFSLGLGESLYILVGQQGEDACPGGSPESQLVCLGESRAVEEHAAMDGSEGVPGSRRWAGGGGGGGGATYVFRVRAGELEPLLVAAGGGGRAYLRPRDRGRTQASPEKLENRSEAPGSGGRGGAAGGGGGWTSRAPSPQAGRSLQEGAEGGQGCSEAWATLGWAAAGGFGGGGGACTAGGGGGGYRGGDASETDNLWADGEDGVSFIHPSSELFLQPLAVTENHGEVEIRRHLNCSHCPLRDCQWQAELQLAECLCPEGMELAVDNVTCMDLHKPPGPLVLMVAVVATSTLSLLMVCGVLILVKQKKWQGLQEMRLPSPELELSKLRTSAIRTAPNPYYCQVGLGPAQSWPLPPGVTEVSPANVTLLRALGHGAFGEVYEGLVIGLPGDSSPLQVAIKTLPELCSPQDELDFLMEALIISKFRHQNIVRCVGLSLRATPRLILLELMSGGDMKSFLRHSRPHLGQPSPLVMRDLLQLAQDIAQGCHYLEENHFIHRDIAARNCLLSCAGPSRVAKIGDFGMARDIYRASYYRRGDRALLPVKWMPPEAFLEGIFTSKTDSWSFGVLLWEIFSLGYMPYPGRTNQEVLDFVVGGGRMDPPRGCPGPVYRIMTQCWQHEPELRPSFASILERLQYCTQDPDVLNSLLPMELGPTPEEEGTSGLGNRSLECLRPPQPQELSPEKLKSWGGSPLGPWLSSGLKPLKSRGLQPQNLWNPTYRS

For `Cc1ccc(CNC(=O)c2cccc(C(C)Oc3ccnc(Nc4cnn(C5CCN(C)CC5)c4)c3)c2)cc1` (stereo unspecified), the pIC50 [1] was 5.51, the pIC50 [2] was 6.36 and the inhibition [3] was 9%. The inhibition [4] was 15%, the inhibition [5] was 1% and the inhibition [6] was 1%. The inhibition [7] was 11%, the inhibition [8] was 7% and the inhibition [9] was 12%. It also gave an inhibition [10] of 2%, an inhibition [11] of 9% and an inhibition [12] of 8%. The inhibition [13] was 3%, the inhibition [14] was 6% and the pIC50 [15] was 5.05. For the same compound, the pIC50 [16] was 5.09.

`Cc1cnc(Nc2ncccc2OC(C)c2cccc(C(=O)NCc3ccc(F)c(Cl)c3)c2)s1` (stereo unspecified) was tested, and the pIC50 [2] was 5.02, the pIC50 [15] was 5.09 and the pIC50 [16] was 4.46.

`COc1cc(Nc2cc(OC(C)c3cccc(C(=O)NCc4ccc(C)cc4)c3)ccn2)cc(OC)c1OC` (stereo unspecified) was tested, and the pIC50 [2] was 5.62, the pIC50 [15] was 5.11 and the pIC50 [16] was 4.80.

With `CC(Oc1ccnc(Nc2cnn(C)c2)c1)c1cccc(C(=O)NCc2ccc(C#N)cc2)c1` (stereo unspecified) the pIC50 [2] was 5.82, the pIC50 [15] was 4.45 and the pIC50 [16] was 5.06.

With `Cc1ccc(CNC(=O)c2cccc(C(C)Oc3ccnc(NN4CCOCC4)c3)c2)cc1` (stereo unspecified) the pIC50 [2] was under 5.00, the pIC50 [15] was under 4.00 and the pIC50 [16] was 4.17.

Compound `CC(Oc1ccnc(Nc2cnn(C)c2)c1)c1cccc(C(=O)NCc2cc(F)cc(F)c2)c1` (stereo unspecified) has a pIC50 [2] of 5.62, a pIC50 [15] of 5.12 and a pIC50 [16] of 4.88.

For `CC(Oc1cccnc1Nc1cnn(C)c1)c1cccc(C(=O)NCc2ccc(OC(F)(F)F)cc2)c1` (stereo unspecified), the pIC50 [2] was under 5.00, the pIC50 [15] was 5.08 and the pIC50 [16] was 4.13.

`COc1ccc(CNC(=O)c2cccc(C(C)Oc3ccnc(Nc4cnn(C5CCNCC5)c4)c3)c2)cc1OC` (stereo unspecified) was tested, and the pIC50 [1] was 5.35, the pIC50 [2] was 6.43 and the inhibition [3] was 11%. The inhibition [4] was 13%, the inhibition [5] was 2% and the inhibition [6] was 0%. For the same compound, the inhibition [7] was 16%, the inhibition [8] was 9% and the inhibition [9] was 10%. For the same compound, the inhibition [10] was 3%, the inhibition [11] was 15% and the inhibition [12] was 7%. It also gave an inhibition [13] of 5%, an inhibition [14] of 1% and a pIC50 [15] of 4.33. For the same compound, the pIC50 [16] was 4.19.

`CC(Oc1ccnc(Nc2cnn(C)c2)c1)c1cccc(C(=O)NCc2cc(C(F)(F)F)cc(C(F)(F)F)c2)c1` (stereo unspecified) was tested, and the pIC50 [1] was under 5.00, the pIC50 [2] was 5.13 and the pIC50 [15] was 4.61. The pIC50 [16] was 5.03.

Work on `Cc1ccc(CNC(=O)c2cccc(C(C)Oc3cccnc3Nc3cnn(CC#N)c3)c2)cc1` (stereo unspecified) yielded a pIC50 [1] of under 5.00, a pIC50 [2] of 5.06 and a pIC50 [15] of 4.42. It also gave a pIC50 [16] of 4.24.

`COc1ccc(CNC(=O)c2cccc(C(C)Oc3ccnc(Nc4cnn(C)c4)c3)c2)cc1OC` (stereo unspecified) was tested, and the pIC50 [2] was 6.19, the pIC50 [15] was 4.41 and the pIC50 [16] was 4.12.

`CC(Oc1ccnc(Nc2cnn(C3CCN(C)CC3)c2)c1)c1cccc(C(=O)NCc2ccc(Cl)c(C(F)(F)F)c2)c1` (stereo unspecified) showed a pIC50 [2] of 5.64, a pIC50 [15] of 5.10 and a pIC50 [16] of 5.14.

`CC(Oc1cccnc1Nc1cnn(C)c1)c1cccc(C(=O)NCc2ccc(F)cc2)c1` (stereo unspecified) was tested, and the pIC50 [2] was under 5.00, the pIC50 [15] was 4.36 and the pIC50 [16] was 4.16.

Work on `CC(Oc1cccnc1Nc1cnn(C)c1)c1cccc(C(=O)NCc2ccc(Cl)c(C(F)(F)F)c2)c1` (stereo unspecified) yielded a pIC50 [2] of 5.20, a pIC50 [15] of 4.29 and a pIC50 [16] of 4.31.

`COc1ccc(CNC(=O)c2cccc(C(C)Oc3ccnc(Nc4ncccn4)c3)c2)cc1OC` (stereo unspecified) gave a pIC50 [2] of 6.36, a pIC50 [15] of under 4.00 and a pIC50 [16] of under 4.00.

Work on `COc1cc(CNC(=O)c2cccc(C(C)Oc3ccnc(Nc4cnn(C)c4)c3)c2)cc(OC)c1OC` (stereo unspecified) yielded a pIC50 [2] of 6.39, a pIC50 [15] of 4.54 and a pIC50 [16] of 4.13.

`CC(Oc1ccnc(Nc2cnn(CC(C)(C)O)c2)c1)c1cccc(C(=O)NCc2ccc(Cl)c(C(F)(F)F)c2)c1` (stereo unspecified) showed a pIC50 [2] of 5.08, a pIC50 [15] of 4.42 and a pIC50 [16] of under 4.00.

`Cc1ccc(CNC(=O)c2cccc(C(C)Oc3cccnc3Nc3ncccn3)c2)cc1` (stereo unspecified) was tested, and the pIC50 [1] was under 5.00, the pIC50 [2] was 5.21 and the pIC50 [15] was under 4.00. The pIC50 [16] was under 4.00.

`CC(Oc1cccnc1Nc1cnn(C)c1)c1cccc(C(=O)NCc2ccccc2S(=O)(=O)C(C)C)c1` (stereo unspecified) was tested, and the pIC50 [1] was under 5.00, the pIC50 [2] was 5.06 and the pIC50 [15] was under 4.00. It also gave a pIC50 [16] of 4.20.

`Cc1ccc(CNC(=O)c2cccc(C(C)Oc3cccnc3Nc3cnn(CC(C)(C)O)c3)c2)cc1` (stereo unspecified) showed a pIC50 [1] of under 5.00, a pIC50 [2] of 5.03 and a pIC50 [15] of 5.04. It also gave a pIC50 [16] of 4.69.

For `CC(Oc1cccnc1Nc1cnn(C)c1)c1cccc(C(=O)NCc2ccc(F)c(Cl)c2)c1` (stereo unspecified), the pIC50 [2] was under 5.00, the pIC50 [15] was 4.45 and the pIC50 [16] was 5.11.

For `Cc1ccc(CNC(=O)c2cccc(C(C)Oc3cccnc3Nc3ncc(C)s3)c2)cc1` (stereo unspecified), the pIC50 [1] was under 5.00, the pIC50 [2] was 5.03 and the pIC50 [15] was 5.07. It also gave a pIC50 [16] of 4.83.

With `COc1cccc(CNC(=O)c2cccc(C(C)Oc3cccnc3Nc3cnn(C)c3)c2)c1` (stereo unspecified) the pIC50 [2] was under 5.00, the pIC50 [15] was 4.31 and the pIC50 [16] was 4.10.

For `Cc1ccc(CNC(=O)c2cccc(C(C)Oc3ccnc(Nc4cnn(CC(C)(C)O)c4)c3)c2)cc1` (stereo unspecified), the pIC50 [1] was under 5.00, the pIC50 [2] was 5.62 and the pIC50 [15] was under 4.00. For the same compound, the pIC50 [16] was 4.30.

`COc1ccc(CNC(=O)c2cccc(C(C)Oc3ccnc(Nc4cnn(C5CCN(C)CC5)c4)c3)c2)cc1OC` (stereo unspecified) showed a pIC50 [2] of 6.24, a pIC50 [15] of 4.83 and a pIC50 [16] of 5.05.

In the case of `Cc1ccc(CNC(=O)c2cccc(C(C)Oc3ccnc(NN4CCCCC4)c3)c2)cc1` (stereo unspecified), the pIC50 [2] was under 5.00, the pIC50 [15] was 4.43 and the pIC50 [16] was 4.61.

In the case of `C[C@@H](Oc1cc(-c2cnn(C3CCNCC3)c2)cnc1N)c1c(Cl)ccc(F)c1Cl` [CRIZOTINIB], the pIC50 [15] was 6.10 and the pIC50 [16] was 5.70.

`Cc1ccc(CNC(=O)c2cccc(C(C)Oc3ccnc(Nc4cn(C)nc4C)c3)c2)cc1` (stereo unspecified) showed a pIC50 [2] of 5.85, a pIC50 [15] of 4.87 and a pIC50 [16] of 4.76.

For `Cc1ccc(CNC(=O)c2cccc(C(C)Oc3ccnc(Nc4cnn(C)c4)c3)c2)cc1` (stereo unspecified), the pIC50 [2] was 5.74, the pIC50 [15] was 5.11 and the pIC50 [16] was 5.05.

For `Cc1ccc(CNC(=O)c2cccc(C(C)Oc3cccnc3Nn3cnnc3)c2)cc1` (stereo unspecified), the pIC50 [2] was under 5.00, the pIC50 [15] was 4.63 and the pIC50 [16] was 5.03.

Compound `CC(Oc1ccnc(NN2CCN(C)CC2)c1)c1cccc(C(=O)NCc2ccc(Cl)c(C(F)(F)F)c2)c1` (stereo unspecified) has a pIC50 [2] of 5.04, a pIC50 [15] of 4.66 and a pIC50 [16] of 4.63.

Work on `Cc1ccc(CNC(=O)c2cccc(C(C)Oc3cccnc3Nc3nccs3)c2)cc1` (stereo unspecified) yielded a pIC50 [2] of under 5.00, a pIC50 [15] of 4.82 and a pIC50 [16] of 4.57.

For `Cc1ccc(CNC(=O)c2cccc(C(C)Oc3cccnc3Nc3nncs3)c2)cc1` (stereo unspecified), the pIC50 [2] was under 5.00, the pIC50 [15] was 4.68 and the pIC50 [16] was 4.75.

Compound `Cc1ccc(CNC(=O)c2cccc(C(C)Oc3ccnc(NN4CCN(C)CC4)c3)c2)cc1` (stereo unspecified) has a pIC50 [2] of under 5.00, a pIC50 [15] of 5.09 and a pIC50 [16] of 4.58.

`COc1cccc(CNC(=O)c2cccc(C(C)Oc3ccnc(Nc4cnn(C)c4)c3)c2)c1` (stereo unspecified) showed a pIC50 [2] of 5.74, a pIC50 [15] of under 4.00 and a pIC50 [16] of 4.19.

Compound `Cc1ccc(CNC(=O)c2cccc(C(C)Oc3ccnc(Nc4nc5ccccc5[nH]4)c3)c2)cc1` (stereo unspecified) has a pIC50 [1] of under 5.00, a pIC50 [2] of under 5.00 and a pIC50 [15] of 5.03. For the same compound, the pIC50 [16] was under 4.00.
